The values below come from patent US5256657A, “Succinamide derivative matrix-metalloprotease inhibitors” (Sterling Winthrop, Inc., priority 1991, dated 1993).

This assay deals with T1, human fibroblast collagenase (Homo sapiens, UniProt P03956).
T1 construct: made in house; host or cells: human fibroblast (native enzyme by its name)
T1 sequence (P03956 100-469): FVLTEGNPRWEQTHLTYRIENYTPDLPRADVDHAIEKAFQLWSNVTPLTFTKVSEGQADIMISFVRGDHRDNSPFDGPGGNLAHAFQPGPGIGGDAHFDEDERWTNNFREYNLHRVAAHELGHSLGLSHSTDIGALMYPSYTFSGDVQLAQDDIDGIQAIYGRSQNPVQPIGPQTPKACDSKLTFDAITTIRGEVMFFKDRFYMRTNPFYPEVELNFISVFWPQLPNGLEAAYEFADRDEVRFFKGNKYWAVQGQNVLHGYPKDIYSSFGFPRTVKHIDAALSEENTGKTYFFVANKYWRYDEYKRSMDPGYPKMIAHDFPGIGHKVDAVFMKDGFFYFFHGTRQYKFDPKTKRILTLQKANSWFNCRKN
Description: Inhibition of Human Fibroblast Collagenase (in vitro, H-Pro-Met-Ala-Leu-Trp-NHCH3 substrate, fluorescamine detection). The format is biochemical. The note with it: trypsin-activated enzyme 25 nM; substrate 375 μM; pH 7.5; DMSO not exceeding 5%; 90 minutes; calculated from competitive inhibitor equation; read-out: IC50 (half-maximal inhibitory concentration), Inhibition of Human Fibroblast Collagenase. As for the experimental part: As stated above the compounds of Formula I are matrix-metalloprotease inhibitors useful in treatment of disease in which matrix-metalloprotease promoted connective tissue remodelling is a causative factor, for example, rheumatoid arthritis and cancer.
Human fibroblast collagenase was purified as described by Fields et al. (The Journal of Biological Chemistry, vol. 262, pp. 6221-6226, 1987), activated with trypsin and used at a concentration of 25 nM. H-Pro-Met-Ala-Leu-Trp-NHCH3 (Netzel-Arnett et al., The Journal of Biological Chemistry, vol 266, pp. 6747-6755, 1991) was used as substrate at a concentration of 375 μM. Fluorescamine was used to detect the products of enzymolysis. […] Product concentrations were measured at intervals throughout the test period (90 minutes). The half-maximal inhibitory concentration (IC50) of the test compound was calculated from the equation for a competitive inhibitor using percent inhibition values between 20% and 80%. The products of parts B and C of example 2 and parts B and C. of example 3 were tested and the following results were obtained.
As for `CC(C)C[C@H](CC(=O)O)C(=O)N[C@@H](Cc1c[nH]c2ccccc12)C(=O)NCCSCCN(C)C` [Example 2B], the IC50 is 8.8 µM.

In the case of `CC(C)C[C@H](CC(=O)NO)C(=O)N[C@@H](Cc1c[nH]c2ccccc12)C(=O)NCCSCCN(C)C` [Example 2C], the IC50 was 0.02 µM.

Regarding `CC(C)C[C@H](CC(=O)O)C(=O)N[C@@H](Cc1c[nH]c2ccccc12)C(=O)NCCSCCN1CCOCC1` [Example 3B], the IC50 was 4.5 µM.

Turning to `CC(C)C[C@H](CC(=O)NO)C(=O)N[C@@H](Cc1c[nH]c2ccccc12)C(=O)NCCSCCN1CCOCC1` [Example 3C], the IC50 was 0.015 µM.
